≈ marks a conversion by molar mass, not a printed value.
Assays:
Test in all cases: In vitro MIC, 2010 surveillance isolates
[1] = system: E. coli ESBL−; format: cell-based, Escherichia coli
[2] = system: E. coli ESBL+; format: cell-based, Escherichia coli
[3] = system: K. pneumoniae ESBL−; format: cell-based, Klebsiella pneumoniae
[4] = system: K. pneumoniae ESBL+; format: cell-based, Klebsiella pneumoniae
[5] = system: K. oxytoca; format: cell-based
[6] = system: E. cloacae CeftazS; format: cell-based
[7] = system: E. cloacae CeftazR; format: cell-based
[8] = system: Enterobacter spp; format: cell-based
[9] = system: A. baumanii; format: cell-based
[10] = system: Acinetobacter spp; format: cell-based

## NCC[C@H](O)C(=O)N[C@@H]1C[C@H](N)[C@@H](O[C@H]2O[C@H](CN)[C@@H](O)[C@H](O)[C@H]2O)[C@H](O)[C@H]1O[C@H]1O[C@H](CO)[C@@H](O)[C@H](N)[C@H]1O [Amikacin]
[1]; Asia/Pac, Eucast breakpoints
  % R (resistance): 0.4%
[1]; Asia/Pac, N=282
  MIC90: 4 µg/mL (≈ 6.83 µM)
[1]; Europe, Eucast breakpoints
  % R (resistance): 0.3%
[1]; Europe, N=1533
  MIC90: 4 µg/mL (≈ 6.83 µM)
[1]; L. Amer, CLSI breakpoints
  % R (resistance): 0%
[1]; L. Amer, N=389
  MIC90: 4 µg/mL (≈ 6.83 µM)
[1]; N America, CLSI breakpoints
  % R (resistance): 0%
[1]; N America, N=1172
  MIC90: 4 µg/mL (≈ 6.83 µM)
[2]; Asia/Pac, Eucast breakpoints
  % R (resistance): 8.2%
[2]; Asia/Pac, N=219
  MIC90: 8 µg/mL (≈ 13.7 µM)
[2]; Europe, Eucast breakpoints
  % R (resistance): 2.2%
[2]; Europe, N=274
  MIC90: 8 µg/mL (≈ 13.7 µM)
[2]; L. Amer, CLSI breakpoints
  % R (resistance): 1.2%
[2]; L. Amer, N=168
  MIC90: 8 µg/mL (≈ 13.7 µM)
[2]; N America, CLSI breakpoints
  % R (resistance): 0.7%
[2]; N America, N=134
  MIC90: 8 µg/mL (≈ 13.7 µM)
[3]; Asia/Pac, Eucast breakpoints
  % R (resistance): 0.5%
[3]; Asia/Pac, N=189
  MIC90: 2 µg/mL (≈ 3.42 µM)
[3]; Europe, Eucast breakpoints
  % R (resistance): 0.3%
[3]; Europe, N=361
  MIC90: 2 µg/mL (≈ 3.42 µM)
[3]; L. Amer, CLSI breakpoints
  % R (resistance): 0%
[3]; L. Amer, N=160
  MIC90: 2 µg/mL (≈ 3.42 µM)
[3]; N America, CLSI breakpoints
  % R (resistance): 0%
[3]; N America, N=671
  MIC90: 2 µg/mL (≈ 3.42 µM)
[4]; Asia/Pac, Eucast breakpoints
  % R (resistance): 23.4%
[4]; Asia/Pac, N=124
  MIC90: > 32 µg/mL
[4]; Europe, Eucast breakpoints
  % R (resistance): 15.9%
[4]; Europe, N=151
  MIC90: 32 µg/mL (≈ 54.6 µM)
[4]; L. Amer, CLSI breakpoints
  % R (resistance): 14.8%
[4]; L. Amer, N=209
  MIC90: > 32 µg/mL
[4]; N America, CLSI breakpoints
  % R (resistance): 2.8%
[4]; N America, N=108
  MIC90: 32 µg/mL (≈ 54.6 µM)
[5]; Asia/Pac, Eucast breakpoints
  % R (resistance): 0%
[5]; Asia/Pac, N=17
  MIC90: 2 µg/mL (≈ 3.42 µM)
[5]; Europe, Eucast breakpoints
  % R (resistance): 0%
[5]; Europe, N=158
  MIC90: 2 µg/mL (≈ 3.42 µM)
[5]; L. Amer, CLSI breakpoints
  % R (resistance): 8%
[5]; L. Amer, N=25
  MIC90: 32 µg/mL (≈ 54.6 µM)
[5]; N America, CLSI breakpoints
  % R (resistance): 0%
[5]; N America, N=177
  MIC90: 2 µg/mL (≈ 3.42 µM)
[6]; Asia/Pac, Eucast breakpoints
  % R (resistance): 1%
[6]; Asia/Pac, N=100
  MIC90: 2 µg/mL (≈ 3.42 µM)
[6]; Europe, Eucast breakpoints
  % R (resistance): 1.1%
[6]; Europe, N=183
  MIC90: 2 µg/mL (≈ 3.42 µM)
[6]; L. Amer, CLSI breakpoints
  % R (resistance): 0%
[6]; L. Amer, N=57
  MIC90: 16 µg/mL (≈ 27.3 µM)
[6]; N America, CLSI breakpoints
  % R (resistance): 0%
[6]; N America, N=210
  MIC90: 2 µg/mL (≈ 3.42 µM)
[7]; Asia/Pac, Eucast breakpoints
  % R (resistance): 9.5%
[7]; Asia/Pac, N=63
  MIC90: 16 µg/mL (≈ 27.3 µM)
[7]; Europe, Eucast breakpoints
  % R (resistance): 1.4%
[7]; Europe, N=72
  MIC90: 8 µg/mL (≈ 13.7 µM)
[7]; L. Amer, CLSI breakpoints
  % R (resistance): 7.1%
[7]; L. Amer, N=42
  MIC90: 16 µg/mL (≈ 27.3 µM)
[7]; N America, CLSI breakpoints
  % R (resistance): 0%
[7]; N America, N=77
  MIC90: 4 µg/mL (≈ 6.83 µM)
[8]; Asia/Pac, Eucast breakpoints
  % R (resistance): 3.8%
[8]; Asia/Pac, N=52
  MIC90: 2 µg/mL (≈ 3.42 µM)
[8]; Europe, Eucast breakpoints
  % R (resistance): 0%
[8]; Europe, N=82
  MIC90: 4 µg/mL (≈ 6.83 µM)
[8]; L. Amer, CLSI breakpoints
  % R (resistance): 0%
[8]; L. Amer, N=42
  MIC90: 4 µg/mL (≈ 6.83 µM)
[8]; N America, CLSI breakpoints
  % R (resistance): 1%
[8]; N America, N=101
  MIC90: 2 µg/mL (≈ 3.42 µM)
[9]; Asia/Pac, Eucast breakpoints
  % R (resistance): 74.9%
[9]; Asia/Pac, N=275
  MIC90: > 32 µg/mL
[9]; Europe, Eucast breakpoints
  % R (resistance): 58.6%
[9]; Europe, N=145
  MIC90: > 32 µg/mL
[9]; L. Amer, CLSI breakpoints
  % R (resistance): 57.5%
[9]; L. Amer, N=275
  MIC90: > 32 µg/mL
[9]; N America, CLSI breakpoints
  % R (resistance): 42.9%
[9]; N America, N=154
  MIC90: > 32 µg/mL
[10]; Asia/Pac, Eucast breakpoints
  % R (resistance): 22.2%
[10]; Europe, Eucast breakpoints
  % R (resistance): 39.5%
[10]; Europe, N=43
  MIC90: > 32 µg/mL
[10]; L. Amer, CLSI breakpoints
  % R (resistance): 22.2%
[10]; N America, CLSI breakpoints
  % R (resistance): 9.5%
[10]; N America, N=42
  MIC90: 8 µg/mL (≈ 13.7 µM)

From patent US10238670B2, “9-aminomethyl minocycline compounds and methods of use thereof in urinary tract infection (UTI) treatment” (Paratek Pharmaceuticals, Inc., priority 2016, dated 2019)
